According to patent US20080009546A1 (Chevron U.S.A. Inc., priority 2005, published 2008):
Read-outs that look alike come from different tables or passages of the source.

Assays:
[1] = system: primary neurons from rat cerebral cortex; assay: NMDA-induced LDH release assay in primary cortical neurons (neuroprotection); assay type: cell-based; details: Rattus norvegicus, Primary neuron; two experiments; 300 uM NMDA + 50 μM glycine 15 minutes, LDH after 24 hours; read-out: average EC50 (±SD), NMDA-induced LDH release
Description: The neuroprotective properties of drugs have been studied in vitro, using neurons cultured from cortex, cerebellum or retina. […] Neurotoxicity is determined in this assay by measuring lactate dehydrogenase (LDH), a method which is simple, accurate and reproducible. We conducted pilot studies to test if poly-lysine-coated plates would be suitable as a matrix upon which to plate fetal neurons, compared to astrocyte-coated plates. We also compared the use of growth medium to neurobasal medium supplemented with B27 in the pilot experiments. The concentrations of NMDA (300-500 μM), glycine (10-50 μM), and memantine (10-100 μM) were varied, and optimum concentrations and times determined from these pilot studies were then chosen for the main study. The assay is described below.
Fetal rat neocortical cells were cultured on a mouse astroglial feeder layer. To obtain mouse astroglial cells for the feeder layer, cortices were harvested from 1-day old Swiss Webster mice (Charles River, Hollister, Calif.) according to the procedure described by Rose et al (1993). After dissecting cortices in ice-cold dissecting medium, they were minced and incubated in 0.09% trypsin in media stock for 1 hr, followed by resuspension in growth medium containing 10% equine serum and 10% fetal bovine serum. A single-cell suspension was obtained by triturating through fire-bored glass pipettes, and the resulting cell suspension was plated at a density of 0.5-0.75 hemispheres/24-well plate/9.6 ml, with 0.4 ml/well. Plates were incubated in a humidified incubator at 37° C., 5% CO2. Astroglial cells become confluent in about 2-3 weeks, at which time these cultures are ready to be used as feeder layers upon which neuronal cultures can be plated. Neuronal cells were obtained from gestational Sprague-Dawley rats E16-E18, using a similar dissection procedure. Rat embryos were dissected to obtain cortical tissue, which was plated as a single-cell suspension at a density of 1.4 hemispheres/24-well plate/9.6 ml, with 0.4 ml/well. These cells were plated on the existing astroglial feeder layer, and were incubated at 37° C., 5% CO2. After 5 days in culture, cytosine arabinoside (10 μM) was added to the wells to inhibit glial cell proliferation, and after 24 hours, the medium was replaced with fresh growth medium. Cells were fed with fresh growth medium every 2 days, until the experiments were performed. For coating plates with poly-lysine, we used poly-d-lysine hydrobromide (Sigma Cat # P7280) at a concentration of 0.1 mg/ml to coat each well using a minimum volume of 0.2 ml/well. After coating for 5 minutes, the solution was aspirated and wells were rinsed thoroughly with sterile tissue culture grade water. After drying for 2 hours, plates were ready for use. Neuronal cultures were plated onto poly-lysine-coated plates at the same density as above. For the pilot study, some of the cultures were fed with 1:1 ratio of growth medium: neurobasal medium (GIBCO)+B-27 supplement (2%), while the rest of the cultures were fed with growth medium alone (Losi et al., 2006). For the main study, we used astroglial feeder layers to plate the neuronal cultures, and used a mix (1:1) of growth medium with neurobasal medium+B-27 supplement for feeding the cultures.
After 11-14 days in culture, neuronal cells were confluent and experiments were performed. Cells were washed twice using sterile Locke's buffer (154 mM NaCl, 5.6 mM KCl, 2.3 mM CaCl2, 3.6 mM NaHCO3, 5.5 mM D-glucose, 5 mM HEPES, pH 7.4), and then exposed to the various treatment compounds. […] After 15 minutes, cultures were washed twice and incubated overnight in media stock. After 24 hours, supernatants and lysates were collected to measure LDH activity. LDH activity was measured by the reduction of NAD, which was utilized in the stoichiometric conversion of a tetrazolium dye using a kit (Sigma TOX-7). Supernatants were removed from the wells and centrifuged before LDH measurements. The adherent cells were lysed to obtain total LDH. […]

NMDA receptor = assay: Whole-cell voltage-clamp recordings of NMDA evoked currents in hypocretin neurons (hypothalamic slices); assay type: cell-based, mouse; details: for inhibition of the peak amplitude of NMDA evoked currents: bath application, -60 mV, mean±SEM
C57/BL6 male mice [2] = assay: Pentylenetetrazol (PTZ)-induced seizure/death model; assay type: in vivo, mouse; details: for # mice with L3 seizure / # mice with L4 seizure / # of deaths within 30 min: 6 mice; for Time to death: mice that died within 30 min
Description: Although the protection against death is the key endpoint, other effects of the compounds on PTZ-induced seizures were also assessed using multiple parameters. For the mice that did die within the 30 minute observation window, the time of death was also compared. […] The seizure occurrence rate, onset time and number of level 3 (L3) seizure (repetitive seizures but the animal can still stand) and level 4 (L4) seizure (repetitive seizures and the animal loses righting) are also analyzed. The MDT compound (30 mg/kg) treated groups show a certain degree of improvement compared to control. No data from MK801 or memantine were included because the seizures occurring under these treatments are totally different from the control or MDT injected groups due to side effects (“high jumping”).

C57/BL6 male mice [3] = details: for # of deaths / # of extensions: 6 mice
C57/BL6 male mice [4] = assay: Rotarod test (balance and coordination, side effects)
Description: The side effects of the compounds was primarily evaluated using the rotarod test, which mainly assesses the balancing and coordination of mice. The comparisons were made on fall time of the mice between the first measure (pre-treatment) and second measure taken 20 min after the drug/vehicle injection in the same group (paired t-test). […] Comparisons of the rotatod fall times after drug/vehicle dosing were made between drug treatment and control groups (unpaired t-test).

[5] = Dissolving compounds to make 10 mM stock solution; assay type: physicochemical; details: deionized water or assay friendly solvents, hot water
Description: Following assay establishment, the test compounds were tested for binding affinities. The concentrations selected for the experiments were chosen according to what was found for memantine in our assay. The first task was to dissolve the compounds and make up the 10 mM stock solution for further experiments. Those compounds that were made into salt format were easy to dissolve in deionized water, but the other compounds were difficult to bring into solution. Several “assay friendly” solvents have been tried, such as molecusol, acetic acid and propylene glycol followed by putting the vial into hot water.

SMILES: CC12CC3(N)CC4C5CC(CC41)CC2C5C3 [MDT-22, 1-methyl-9-aminodiamantane]
- EC50 [1]: 56.5 ± 14.6 µM
- inhibition of the peak amplitude of NMDA evoked currents (NMDA receptor; 10 μM): 19±3.1%
- inhibition of the peak amplitude of NMDA evoked currents (NMDA receptor; 100 μM): 45±12.1%
- reversibility of inhibition of NMDA evoked currents upon washout (NMDA receptor; washout of the compound): reversible
- # L3 per mouse (C57/BL6 male mice [2]; 10 mg/kg i.p.): 2.00 ± 0.58
- # L4 per mouse (C57/BL6 male mice [2]; 10 mg/kg i.p.): 3.85 ± 2.28
- L3 onset time (C57/BL6 male mice [2]; 10 mg/kg i.p.): 2.80 ± 1.00 min
- L3 seizure rate (C57/BL6 male mice [2]; 10 mg/kg i.p.): 0.50
- L4 onset time (C57/BL6 male mice [2]; 10 mg/kg i.p.): 7.90 ± 1.70 min
- L4 seizure rate (C57/BL6 male mice [2]; 10 mg/kg i.p.): 1.00
- Mortality rate (C57/BL6 male mice [2]; 10 mg/kg i.p.): 1.00
- # mice with L3 seizure (C57/BL6 male mice [2]; 10 mg/kg i.p.): 3
- # mice with L4 seizure (C57/BL6 male mice [2]; 10 mg/kg i.p.): 6
- # of deaths within 30 min (C57/BL6 male mice [2]; 10 mg/kg i.p., PTZ 100 mg/kg): 6
- Time to death (C57/BL6 male mice [2]; 10 mg/kg i.p.): 9.60 ± 1.80 min
- # L3 per mouse (C57/BL6 male mice [2]; 30 mg/kg i.p.): 1.67 ± 0.50
- # L4 per mouse (C57/BL6 male mice [2]; 30 mg/kg i.p.): 1.17 ± 0.19
- L3 onset time (C57/BL6 male mice [2]; 30 mg/kg i.p.): 5.10 ± 2.30 min
- L3 seizure rate (C57/BL6 male mice [2]; 30 mg/kg i.p.): 1.00
- L4 onset time (C57/BL6 male mice [2]; 30 mg/kg i.p.): 10.20 ± 3.00 min
- L4 seizure rate (C57/BL6 male mice [2]; 30 mg/kg i.p.): 1.00
- Mortality rate (C57/BL6 male mice [2]; 30 mg/kg i.p.): 0.67
- # mice with L3 seizure (C57/BL6 male mice [2]; 30 mg/kg i.p.): 6
- # mice with L4 seizure (C57/BL6 male mice [2]; 30 mg/kg i.p.): 6
- # of deaths within 30 min (C57/BL6 male mice [2]; 30 mg/kg i.p., PTZ 100 mg/kg): 4
- Time to death (C57/BL6 male mice [2]; 30 mg/kg i.p.): 7.70 ± 2.10 min
- PTZ-induced death (C57/BL6 male mice [2]; 10 and 30 mg/kg i.p., PTZ 100 mg/kg, 30 min observation): a certain reduction in PTZ-induced death
- Extension rate (C57/BL6 male mice [3]; 10 mg/kg i.p.): 1.00
- Mortality rate (C57/BL6 male mice [3]; 10 mg/kg i.p.): 0.50
- # of deaths (C57/BL6 male mice [3]; 10 mg/kg i.p.): 3
- # of extensions (C57/BL6 male mice [3]; 10 mg/kg i.p.): 6
- Extension rate (C57/BL6 male mice [3]; 30 mg/kg i.p.): 0.83
- Mortality rate (C57/BL6 male mice [3]; 30 mg/kg i.p.): 0.33
- # of deaths (C57/BL6 male mice [3]; 30 mg/kg i.p.): 2
- # of extensions (C57/BL6 male mice [3]; 30 mg/kg i.p.): 5
- MES-induced death (C57/BL6 male mice [3]; 10 and 30 mg/kg i.p., mice): dose dependent reduction in MES-induced death
- Fall Time (C57/BL6 male mice [4]; after, 20 min after 10 mg/kg i.p.): 44.58 ± 4.58 min
- Fall Time (C57/BL6 male mice [4]; after, 20 min after 30 mg/kg i.p.): 44.93 ± 5.45 min
- Fall Time (C57/BL6 male mice [4]; before (pre-treatment), 10 mg/kg group): 33.56 ± 3.91 min
- Fall Time (C57/BL6 male mice [4]; before (pre-treatment), 30 mg/kg group): 45.03 ± 6.02 min

SMILES: O=C(O)C12CC3CC4C5CC(CC41)CC2C5C3 [MDT-17]
- dissolution for 10 mM stock solution [5]: did not go into solution, or came out with time
